Reference: US7105502B2, “Nitric oxide-releasing imidate and thioimidate diazeniumdiolates” (The United States of America as represented by the …, priority 2001, dated 2006)

Assays:
[1] = Detection of NO released in solution, headspace swept with argon into a chemiluminescence detector; format: physicochemical
Experimental: The nitrites and all solvents were purchased from Aldrich Chemical Company (Milwaukee, Wis.). Nitric oxide was obtained form Matheson Gas Products (Montgomeryville, Pa.). The ^1H NMR and ^13C NMR spectra were recorded in D2O (^1H at 300 MHz; ^13C at 75 MHz). Ultraviolet spectra (10 mM NaOH unless otherwise specified) and kinetic information were obtained on a Hewlett Packard 8452A UV-visible spectrophotometer with a thermostated cell holder. Infrared data was recorded on a Perkin-Elmer 1430 infrared spectrometer. Nitric oxide was measured with a Thermal Energy Analyzer model 502A (Thermedics, Inc., Woburn, Mass.). Melting points are uncorrected. Elemental analyses were performed by Atlantic Microlab, Inc. (Norcross, Ga.).
(§1) For the detection of NO, selected compounds from the examples were dissolved in either pH 7.4 buffer or 10% H2SO4, and the headspace was swept with argon into a chemiluminescence detector. The detection of nitrous oxide (N2O), formed from the dimerization and dehydration of HNO, was done by gas chromatography in both pH 7.4 buffer and 0.1 M HCl.

[2] = Detection of nitrous oxide (N2O) by gas chromatography; format: physicochemical; settings: acid (0.1 M HCl)
Experimental: as §1

Substance	NO (mole gas/mole cmpd) ([1]; acid (10% H2SO4))	NO (mole gas/mole cmpd) ([1]; pH 7.4 buffer)	N2O (mole gas/mole cmpd) [2] [mole gas/mole cmpd]
1-naphthyl diazeniumdiolate amide [Example 9]	0.02	0.16	
benzyl diazeniumdiolate methoxy imidate [Example 2]	0.46	0.36	1.52
